According to ChEMBL document CHEMBL1131854, “Design, synthesis and antimuscarinic activity of some imidazolium derivatives” (Bioorg Med Chem Lett, 1999):

Experiments:
[1] = target: Muscarinic acetylcholine receptors; M2 & M3 (Homo sapiens) (UniProt P20309+P08172); assay: Selectivity ratio between Kb values of M2-receptor (atria) and M3-receptor (ileum); type: tissue-based; details: Cavia porcellus
[2] = target: Muscarinic acetylcholine receptor M3 (Cavia porcellus) (UniProt Q8VH26); assay: Antimuscarinic activity against muscarinic acetylcholine M3-receptor in guinea pig ileum; type: tissue-based
Muscarinic acetylcholine receptor M3 (Cavia porcellus), sequence (Q8VH26 1-587): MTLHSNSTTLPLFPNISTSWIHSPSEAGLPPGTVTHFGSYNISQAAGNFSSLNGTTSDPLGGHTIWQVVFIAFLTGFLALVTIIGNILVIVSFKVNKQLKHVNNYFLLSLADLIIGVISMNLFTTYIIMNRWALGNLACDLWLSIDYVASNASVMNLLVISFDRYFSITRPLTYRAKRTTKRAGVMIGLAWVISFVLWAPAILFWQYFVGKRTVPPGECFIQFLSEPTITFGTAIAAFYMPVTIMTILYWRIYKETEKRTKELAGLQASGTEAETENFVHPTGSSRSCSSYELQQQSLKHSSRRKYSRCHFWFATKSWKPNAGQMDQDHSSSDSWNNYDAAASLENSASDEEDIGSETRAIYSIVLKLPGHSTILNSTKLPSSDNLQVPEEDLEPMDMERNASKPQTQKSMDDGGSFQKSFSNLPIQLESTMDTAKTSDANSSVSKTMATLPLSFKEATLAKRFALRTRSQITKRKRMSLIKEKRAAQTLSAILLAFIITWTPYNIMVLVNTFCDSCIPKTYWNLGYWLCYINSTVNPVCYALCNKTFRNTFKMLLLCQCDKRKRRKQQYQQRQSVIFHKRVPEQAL

Row | Structure (SMILES) | Ratio [1] | Kb [2] [nM]
1 | CCCc1n(CCC(C(N)=O)(c2ccccc2)c2ccccc2)cc[n+]1C | 1.74 | 12.5
2 | CC(C)(C)c1nccn1CCC(C(N)=O)(c1ccccc1)c1ccccc1 | 2.45 | –
3 | CCCc1nccn1CCC(C(N)=O)(c1ccccc1)c1ccccc1 | 1.44 | –
4 | Cc1n(CCCCC(C(N)=O)(c2ccccc2)c2ccccc2)cc[n+]1Cc1ccccc1 | 26.2 | 0.756
5 | Cc1n(CCC(C(N)=O)(c2ccccc2)c2ccccc2)cc[n+]1Cc1ccc([N+](=O)[O-])cc1 | 5.28 | 0.858
6 | Cc1n(CCCC(C(N)=O)(c2ccccc2)c2ccccc2)cc[n+]1Cc1ccccc1 | 9.94 | 0.639
7 | Cc1cccc(C[n+]2ccn(CCC(C(N)=O)(c3ccccc3)c3ccccc3)c2C)c1 | 4.6 | 2.52
8 | Cc1nccn1CCC(C(N)=O)(c1ccccc1)c1ccccc1 | 13 | –
9 | Cc1nccn1CCCC(C(N)=O)(c1ccccc1)c1ccccc1 | 17.6 | –
10 | CCc1n(CCC(C(N)=O)(c2ccccc2)c2ccccc2)cc[n+]1C | 4.11 | 1.14
11 | CC[n+]1ccn(CCC(C(N)=O)(c2ccccc2)c2ccccc2)c1C | 1.3 | 7.11
12 | Cc1n(CCC(C(N)=O)(c2ccccc2)c2ccccc2)cc[n+]1Cc1ccccc1 | 13.5 | 4.96
13 | NC(=O)C(CCn1ccnc1)(c1ccccc1)c1ccccc1 | 13.5 | –
14 | Cc1ccc(C[n+]2ccn(CCC(C(N)=O)(c3ccccc3)c3ccccc3)c2C)cc1 | 7.15 | 1.02
15 | Cc1n(CCC(C(N)=O)(c2ccccc2)c2ccccc2)cc[n+]1Cc1ccc(Br)cc1 | 22.1 | 0.117
16 | Cc1ccccc1C[n+]1ccn(CCC(C(N)=O)(c2ccccc2)c2ccccc2)c1C | 2.24 | 21.1
17 | CCC[n+]1ccn(CCC(C(N)=O)(c2ccccc2)c2ccccc2)c1C | 3.02 | 4.07
18 | CCc1nccn1CCC(C(N)=O)(c1ccccc1)c1ccccc1 | 3.3 | –
19 | CCCC[n+]1ccn(CCC(C(N)=O)(c2ccccc2)c2ccccc2)c1C | 5.83 | 3.12
20 | Cc1nccn1CCCCC(C(N)=O)(c1ccccc1)c1ccccc1 | 3.39 | –
21 | Cc1n(CCC(C(N)=O)(c2ccccc2)c2ccccc2)cc[n+]1Cc1ccc(-c2ccccc2)cc1 | 24.8 | 1.24
22 | Cc1n(CCC(C(N)=O)(c2ccccc2)c2ccccc2)cc[n+]1Cc1ccccc1Cl | 5.67 | 11.8
23 | Cc1n(CCC(C(N)=O)(c2ccccc2)c2ccccc2)cc[n+]1C | 1.68 | 3.78
24 | Cc1n(CCC(C(N)=O)(c2ccccc2)c2ccccc2)cc[n+]1Cc1ccc(Cl)cc1 | 9.32 | 0.647
25 | Cc1n(CCC(C(N)=O)(c2ccccc2)c2ccccc2)cc[n+]1Cc1cccc(Cl)c1 | 4.36 | 5.62
